Converted amounts (≈) assume the structure as drawn.

Series [1] relates to Trypanosoma cruzi. In words: Antitrypanosomal activity against Trypanosoma cruzi tulahuen 2 after 5 days. The class given is functional. As to conditions: tulahuen 2, 120 h, read-out: ID50 (the source's name).
In series [2] the test system is Trypanosoma cruzi. Put plainly: Increase in squalene biosynthesis in Trypanosoma cruzi tulahuen 2 epimastigotes at ID50 concentration per 8 x 10^6 cells/ml after 120 mins by HPLC analysis (Rvb=0.6 to 2.1 ug/ml). The class given is functional.
For series [3], the system named is Trypanosoma cruzi. In words: Antitrypanosomal activity against Trypanosoma cruzi CL Brener after 5 days. The class given is functional. The settings on record: 120 h, read-out: ID50 (the source's name).
Series [4] can be described thus: Cytotoxicity against mouse J774 cells after 48 hrs by MTT assay. In kind it is cell-based. The settings on record: read-out: ID50.
A short description of series [5]: Selectivity index, ratio of IC50 for mouse J774 cells to ID50 for Trypanosoma cruzi tulahuen 2. In kind it is toxicity, cell-based. As to conditions: J774 cells versus Trypanosoma cruzi Tulahuen 2, read-out: Selectivity Index.
Series [6] concerns Candida albicans. In words: Antifungal activity against Candida albicans ATCC 10231 after 48 hrs by broth microdilution technique. The class given is functional. As to conditions: ATCC 10231, 48 h. (In general: In broth dilution the organism is exposed to a series of concentrations in liquid medium.)
Series [7] concerns Candida tropicalis. In words: Antifungal activity against Candida tropicalis C131-2000 after 48 hrs by broth microdilution technique. The class given is functional. As to conditions: C131-2000, 48 h.
The test system of series [8] is Saccharomyces cerevisiae. Put plainly: Antifungal activity against Saccharomyces cerevisiae ATCC 9763 after 48 hrs by broth microdilution technique. As to conditions: ATCC 9763, 48 h. The class given is functional.
Series [9] has as its system Cryptococcus neoformans. In words: Antifungal activity against Cryptococcus neoformans ATCC 32264 after 48 hrs by broth microdilution technique. The class given is functional. As to conditions: ATCC 32264, 48 h.
In series [10] the test system is Aspergillus niger. In words: Antifungal activity against Aspergillus niger ATCC 9029 after 48 hrs by broth microdilution technique. In kind it is functional. As to conditions: ATCC 9029, 48 h.
Series [11] deals with Aspergillus fumigatus. In words: Antifungal activity against Aspergillus fumigatus ATCC 26934 after 48 hrs by broth microdilution technique. The class given is functional. As to conditions: ATCC 26934, 48 h.
The test system of series [12] is Aspergillus flavus. In words: Antifungal activity against Aspergillus flavus ATCC 9170 after 48 hrs by broth microdilution technique. As to conditions: ATCC 9170, 48 h. The class given is functional.
Series [13] concerns Nannizzia gypsea. In words: Antifungal activity against Microsporum gypseum C 115 after 48 hrs by broth microdilution technique. In kind it is functional. As to conditions: C 115, 48 h.
Series [14] has as its system Trichophyton rubrum. Put plainly: Antifungal activity against Trichophyton rubrum C113 after 48 hrs by broth microdilution technique. The class given is functional. The settings on record: C113, 48 h.
Series [15] has as its system Trichophyton mentagrophytes. Put plainly: Antifungal activity against Trichophyton mentagrophytes ATCC 9972 after 48 hrs by broth microdilution technique. In kind it is functional. As to conditions: ATCC 9972, 48 h.
Series [16] concerns Trypanosoma cruzi. In words: Decrease in ergosterol biosynthesis in Trypanosoma cruzi tulahuen 2 epimastigotes at ID50 concentration per 8 x 10^6 cells/ml after 120 mins by HPLC analysis (Rvb=6.8 +/- 0.5 ug/ml). The class given is functional.
The test system of series [17] is Trypanosoma cruzi. In words: Ratio of ID50 for drug to ID50 for nifurtimox against Trypanosoma cruzi tulahuen 2 after 5 days. The class given is functional.

As for `O=C(/C=C/c1ccco1)N1CCN(C/C=C/c2ccccc2)CC1`, in series [1], the IC50 is greater than 25 µM. In [2], the Activity is 0.6 µg/mL.

On to `O=C(/C=C/c1ccc([N+](=O)[O-])o1)NCCO`, for which the IC50 in series [1] was 5 µM. In addition, in series [2], the Activity is 0.6 µg/mL.

With `C=CCNC(=S)N/N=C/C=C/c1ccc([N+](=O)[O-])o1`, the figures for the IC50 in [1] and in series [3] were 8.2 µM and 6.4 µM, respectively. Besides, in [4], the CC50 at 48 h turned out to be 200 µM. In addition, the selectivity ratio in [5] turned out to be 24.4. The minimal inhibitory concentration (MIC) in series [6], in series [7], in series [8], in series [9], in series [10] and in series [11] was greater than 250 µg/mL in each case. For the same compound, the MIC in [12], in [13], in series [14] and in series [15] was greater than 250 µg/mL in each case. For the same compound, the results for the Activity in [2] and in [16] were 15.9 µg/mL and 5.5 µg/mL, respectively.

As for `O=C(/C=C/c1ccc([N+](=O)[O-])o1)N1CCN(C/C=C/c2ccccc2)CC1`, in [1], the IC50 worked out at 1 µM. In addition, in [17], the Ratio is on record as 7. For the same compound, the Activity in [2] is 0.6 µg/mL.

On to `C[C@@H]1[C@H](O)[C@@H](C)/C=C/C=C/C=C/C=C/C=C/C=C/C=C/[C@H](O[C@@H]2O[C@H](C)[C@@H](O)[C@H](N)[C@@H]2O)C[C@@H]2O[C@](O)(C[C@@H](O)C[C@@H](O)[C@H](O)CC[C@@H](O)C[C@@H](O)CC(=O)O[C@H]1C)C[C@H](O)[C@H]2C(=O)O` [AMPHOTERICIN B], for which the MIC is 0.5 µg/mL (≈ 0.541 µM) in series [6]; 0.5 µg/mL (≈ 0.541 µM) in [7]; 0.5 µg/mL (≈ 0.541 µM) in [8]; 0.25 µg/mL (≈ 0.271 µM) in series [9]; 0.125 µg/mL (≈ 0.135 µM) in series [10]; 0.5 µg/mL (≈ 0.541 µM) in [11]. The minimal inhibitory concentration (MIC) stood at 0.25 µg/mL (≈ 0.271 µM) in series [12], 0.05 µg/mL (≈ 0.0541 µM) in series [13], 0.025 µg/mL (≈ 0.0271 µM) in series [14] and 0.025 µg/mL (≈ 0.0271 µM) in series [15].

As to `CC(=O)N1CCN(c2ccc(OCC3COC(Cn4ccnc4)(c4ccc(Cl)cc4Cl)O3)cc2)CC1` (configuration not stated) [KETOCONAZOLE], the CC50 at 48 h in [4] is less than 100 µM. For the same compound, the selectivity ratio in [5] is less than 10. The MIC in [6] is 1.56 µg/mL (≈ 2.94 µM); in series [7] it was 1.56 µg/mL (≈ 2.94 µM); in series [8] it was 3.12 µg/mL (≈ 5.87 µM); in series [9], 0.39 µg/mL (≈ 0.734 µM); in series [10], 0.78 µg/mL (≈ 1.47 µM); in series [11] it was 0.78 µg/mL (≈ 1.47 µM). The MIC in series [12] came to 1.56 µg/mL (≈ 2.94 µM); in [13] it was 0.04 µg/mL (≈ 0.0753 µM); in [14], 0.01 µg/mL (≈ 0.0188 µM); in series [15] it was 0.025 µg/mL (≈ 0.047 µM).

As for `CC1CS(=O)(=O)CCN1/N=C/c1ccc([N+](=O)[O-])o1` (configuration not stated) [NIFURTIMOX], in series [4], the CC50 at 48 h came out at 316 µM. The selectivity ratio in series [5] was found to be 41. The compound further came in with an Activity in [2] of 0.6 µg/mL.

For the compound `CN(C/C=C/C#CC(C)(C)C)Cc1cccc2ccccc12` [TERBINAFINE], the CC50 at 48 h in series [4] is 339 µM. In addition, the selectivity ratio in [5] stood at 19.9. For the same compound, the MIC was 0.78 µg/mL (≈ 2.68 µM) in [6]; 1.56 µg/mL (≈ 5.35 µM) in series [7]; 0.5 µg/mL (≈ 1.72 µM) in series [8]; 0.25 µg/mL (≈ 0.858 µM) in [9]; 0.5 µg/mL (≈ 1.72 µM) in series [10]; 0.5 µg/mL (≈ 1.72 µM) in series [11]. The MIC in [12] was 0.5 µg/mL (≈ 1.72 µM); in series [13] it was 0.125 µg/mL (≈ 0.429 µM); in series [14], 0.075 µg/mL (≈ 0.257 µM); in series [15], 0.075 µg/mL (≈ 0.257 µM). The figures for the Activity in [2] and in series [16] were 12 µg/mL and 2.7 µg/mL, respectively.

As a reminder, the MIC is the lowest concentration found to suppress growth. A lower MIC goes with greater potency.
